Experimental data taken from patent US9353094B2, “Substituted quinoxalines as kinase inhibitors” (BOARD OF REGENTS OF THE UNIVERSITY OF NEBRASKA, priority 2010, dated 2016).

Columns and labels:
[1] = test system: panel of cancer cell lines; assay: Growth inhibition assay, whole panel; type: cell-based, human; settings: 20 μM, 72 h
Protocol: (§1) The compounds were screened in a growth inhibition assay at 20 μM over a 72 h period in a panel of cancer cell lines (lung-A549; pancreatic-Aspc1; colon-HT29; breast-MDAMB231; prostate-PC3; ovarian-SKOV3 and bone-U2OS) and the results are summarized in Table 2. […] This size effect was also observed with the urea compounds from the secondary amine (6j vs. 6l and 6k vs. 6m).
(§2) Cell Growth Inhibition Assay. Human lung A549, human pancreatic AsPC1, human colorectal HT-29, human breast MDA-MB-231, human prostate PC3, human ovarian SKOV3, and human osteosarcoma U2OS tumor cell lines were cultured in basal media containing 10% FBS and maintained in a 37° C. incubator with 5% CO2. All compounds were screened in 96 well microtiter plate format. In general, each cell line was plated at optimal assay density in 95 μl of propagation media in 96 well plates and incubated overnight. The next day, a standard alamar blue assay was performed (see below) on representative wells of each cell line for a Tz calculation. Subsequently, cells were treated in duplicate with a 5 μl volume of either vehicle only, positive controls etoposide and taxol, or test compounds at 20 μM (highest soluble compound concentration). The treated cells were incubated for 72 h and then assayed for growth by alamar blue assay. Briefly, 10 μl of reagent was added to each well and the plates returned to 37° C. After 3 h, fluorescence at 544ex/590em was measured using a SpectraMax M5 (Molecular Devices) plate reader. Growth is represented as a percentage of the control cells that were treated with vehicle only and % growth inhibition was determined using the NCI algorithm: Tz=number of untreated cells at zero time, C=Number of control cells at 72 h time, and T=number of compound treated cells at 72 h time; 100*([T−Tz]/[C−Tz]).

[2] = test system: human colorectal HT-29 tumor cell line; assay: Cell growth inhibition assay (alamar blue); type: cell-based; settings: HT29, 20 μM, 72 h
Protocol: as §1, §2

[3] = test system: human prostate PC3 tumor cell line; assay: Cell growth inhibition assay (alamar blue); type: cell-based; settings: PC3, 20 μM, 72 h
Protocol: as §1, §2

[4] = test system: human ovarian SKOV3 tumor cell line; assay: Cell growth inhibition assay (alamar blue); type: cell-based; settings: SKOV3, 20 μM, 72 h
Protocol: as §1, §2

[5] = test system: human breast MDA-MB-231 tumor cell line; assay: Cell growth inhibition assay (alamar blue); type: cell-based; settings: MDA-MB-231, 20 μM, 72 h
Protocol: as §1, §2

[6] = test system: human pancreatic AsPC1 tumor cell line; assay: Cell growth inhibition assay (alamar blue); type: cell-based; settings: AsPC1, 20 μM, 72 h
Protocol: as §1, §2

[7] = test system: human osteosarcoma U2OS tumor cell line; assay: Cell growth inhibition assay (alamar blue); type: cell-based; settings: 72 h
Protocol: as §1, §2

[8] = test system: human lung A549 tumor cell line; assay: Cell growth inhibition assay (alamar blue); type: cell-based; settings: A549, 20 μM, 72 h
Protocol: as §1, §2

Compound	growth inhibition of the various cancer cell lines (in words) [1]	% Growth inhibition at 20 μM [2]	% Growth inhibition at 20 μM [3]	% Growth inhibition at 20 μM [4]	% Growth inhibition at 20 μM [5]	% Growth inhibition at 20 μM [6]	% Growth inhibition at 20 μM [7]	% Growth inhibition at 20 μM [8]
O=[N+]([O-])c1ccc(NC(=S)Nc2ccc3nc(-c4ccco4)c(-c4ccco4)nc3c2)cc1 [6d]	active	42.0 ± 1.9%	43.4 ± 9.3%	Inactive	9.0 ± 4.7%	Inactive	32.2 ± 0.1%	19.2 ± 8.9%
S=C(Nc1ccccc1)Nc1ccc2nc(-c3ccccc3)c(-c3ccccc3)nc2c1 [6c]		Inactive	Inactive	Inactive	Inactive	Inactive	Inactive	Inactive
O=C(Nc1ccc(-c2ccccc2)cc1)Nc1ccc2nc(-c3ccco3)c(-c3ccco3)nc2c1 [7d]		72.4 ± 7.6%	88.5 ± 1.9%	Inactive	50.2 ± 8.9%	Inactive	46.9 ± 7.4%	13.8 ± 9.8%
Cc1nc2ccc(NC(=O)N3CCCC3)cc2nc1C [6g]		Inactive	Inactive	Inactive	Inactive	Inactive	Inactive	Inactive
O=C(Nc1ccc2nc(-c3ccco3)c(-c3ccco3)nc2c1)N1CCCC1 [6h]	active	16.7 ± 3.7%	53.1 ± 9.9%	16.9 ± 4.9%	18.2 ± 7.0%	11.6 ± 4.2%	46.5 ± 4.4%	23.3 ± 2.9%
Cc1ccc(S(=O)(=O)N(c2ccc3nc(-c4cccs4)c(-c4cccs4)nc3c2)S(=O)(=O)c2ccc(C)cc2)cc1 [5k]		Inactive	Inactive	Inactive	Inactive	Inactive	Inactive	Inactive
Cc1nc2ccc(NC(=O)Nc3ccccc3)cc2nc1C [5e]		Inactive	Inactive	Inactive	Inactive	Inactive	Inactive	Inactive
Cc1ccc(S(=O)(=O)Nc2ccc3nc(-c4ccccc4)c(-c4ccccc4)nc3c2)cc1 [5l]		Inactive	Inactive	Inactive	Inactive	Inactive	Inactive	Inactive
CC(=O)Nc1ccc2nc(-c3cccs3)c(-c3cccs3)nc2c1 [5c]		Inactive	Inactive	Inactive	Inactive	Inactive	Inactive	Inactive
O=C(Nc1ccccc1)Nc1ccc2nc(-c3ccccc3)c(-c3ccccc3)nc2c1 [5h]		Inactive	Inactive	Inactive	Inactive	Inactive	Inactive	Inactive
O=C(Nc1ccc2nc(-c3ccccc3)c(-c3ccccc3)nc2c1)N1CCCC1 [6i]		Inactive	56.9 ± 2.7%	18.5 ± 4.3%	16.7 ± 3.9%	29.4 ± 9.8%	54.2 ± 2.2%	11.0 ± 1.3%
O=C(Nc1ccc(Cl)cc1)Nc1ccc2nc(-c3ccco3)c(-c3ccco3)nc2c1 [7b]		86.3 ± 7.7%	86.4 ± 1.1%	55.8 ± 24.1%	92.5 ± 6.6%	81.1 ± 2.0%	87.4 ± 1.1%	99.2 ± 5.2%
O=C(Nc1ccc(F)cc1)Nc1ccc2nc(-c3ccco3)c(-c3ccco3)nc2c1 [7a]		74.2 ± 5.2%	90.7 ± 4.1%	Inactive	38.4 ± 2.7%	>100%	55.6 ± 6.6%	>100%
S=C(Nc1ccccc1)Nc1ccc2nc(-c3cccs3)c(-c3cccs3)nc2c1 [6b]		Inactive	Inactive	Inactive	Inactive	Inactive	Inactive	Inactive
Cc1nc2ccc(NC(=O)N3CCCCC3)cc2nc1C [6l]		Inactive	Inactive	Inactive	Inactive	Inactive	Inactive	Inactive
Cc1nc2ccc(NC(=O)N3CCC(Cc4ccccc4)CC3)cc2nc1C [6j]		16.3 ± 10.1%	30.6 ± 11.6%	8.9 ± 5.1%	12.4 ± 5.0%	Inactive	33.5 ± 0.4%	40.3 ± 1.9%
O=[N+]([O-])c1ccc(NC(=S)Nc2ccc3nc(-c4ccccc4)c(-c4ccccc4)nc3c2)cc1 [6f]		81.2 ± 0.7%	81.0 ± 8.5%	55.8 ± 30.7%	72.6 ± 0.7%	55.5 ± 25.4%	76.1 ± 0.4%	16.6 ± 11.2%
Cc1ccc(S(=O)(=O)N(c2ccc3nc(-c4ccco4)c(-c4ccco4)nc3c2)S(=O)(=O)c2ccc(C)cc2)cc1 [5j]		Inactive	Inactive	Inactive	Inactive	Inactive	Inactive	Inactive
O=C(Nc1ccccc1)Nc1ccc2nc(-c3cccs3)c(-c3cccs3)nc2c1 [5g]		Inactive	Inactive	Inactive	Inactive	Inactive	Inactive	Inactive
CC(=O)Nc1ccc2nc(-c3ccccc3)c(-c3ccccc3)nc2c1 [5d]		Inactive	Inactive	Inactive	Inactive	Inactive	Inactive	Inactive
O=[N+]([O-])c1ccc(NC(=S)Nc2ccc3nc(-c4cccs4)c(-c4cccs4)nc3c2)cc1 [6e]		23.9 ± 27.8%	19.5 ± 37.4%	Inactive	53.3 ± 7.2%	Inactive	50.6 ± 3.9%	Inactive
